The source of these data is patent US8859605B2, “Cysteine protease inhibitors” (Medivir UK Ltd, priority 2009, dated 2014).

In one data set the target is T1, human cathepsin S (Homo sapiens, UniProt P25774).
T1 construct: made in house; host or cells: baculovirus expression system
The experiment in a line: Cathepsin S Ki determination (boc-Val-Leu-Lys-AMC fluorescent substrate). The class given is biochemical. The note with it: baculovirus-expressed human cathepsin S, pH 6.5; read-out: Ki Cat. S. As to the method: Cathepsin S Ki Determination
The assay uses baculovirus-expressed human cathepsin S and the boc-Val-Leu-Lys-AMC fluorescent substrate available from Bachem in a 384 well plate format, in which 7 test compounds can be tested in parallel with a positive control comprising a known cathepsin S inhibitor comparator.
280 μL/well of 12.5% DMSO are added to rows B-H of two columns of a 96 deep well polypropylene plate. 70 μL/well of substrate is added to row A. 2×250 μL/well of assay buffer (100 mM Na phosphate, 100 mM NaCl, pH 6.5) is added to row A, mixed, and double diluted down the plate to row H.
100 μL/well of assay buffer is added to columns 2-5 and 7-12 of 4 rows of a 96 well V bottom polypropylene plate. 200 μL/well of assay buffer is added to columns 1 and 6.
2 μl of each 10 mM test compound is added to a separate well on row A, columns 1-10. Add 90 μl assay buffer containing 1 mM DTT and 2 nM cathepsin S to each well of rows B-H and 180 μl to row A. Mix row A using a multichannel pipette and double dilute to row G. Mix row H and read in the fluorescent spectrophotometer.
The second test compound is added to column 6 of the top row, the third to column 1 of the second row etc. Add 1 μL of comparator to column 6 of the bottom row. Mix column 1 and double dilute to column 5. Mix column 6 and double dilute to column 10. Using an 8-channel multistepping pipette set to 5×10 μL, distribute 10 μL/well of substrate to the 384 well assay plate. Distribute the first column of the substrate dilution plate to all columns of the assay plate starting at row A. The tip spacing of the multichannel pipette will correctly skip alternate rows. Distribute the second column to all columns starting at row B. Using a 12-channel multistepping pipette set to 4×10 μL, distribute 10 μL/well of inhibitor to the 384 well assay plate. Distribute the first row of the inhibitor dilution plate to alternate rows of the assay plate starting at A1. The tip spacing of the multichannel pipette will correctly skip alternate columns. Similarly, distribute the second, third and fourth rows to alternate rows and columns starting at A2, B1 and B2 respectively.
Mix 20 mL assay buffer and 20 μL 1M DTT. Add sufficient cathepsin S to give 2 nM final concentration.
Using the a distributor such as a Multidrop 384, add 30 μL/well to all wells of the assay plate and read in fluorescent spectrophotometer such as an Ascent.
Fluorescent readings, (excitation and emission wavelengths 390 nm and 460 nm respectively, set using bandpass filters) reflecting the extent of enzyme cleavage of the fluorescent substrate, […] the inhibitor, are linear rate fitted for each well.
Fitted rates for all wells for each inhibitor are fitted to the competitive inhibition equation using SigmaPlot 2000 to determine V, Km and Ki values.
(§1) Potential inhibitors are screened using the above assay with variable concentrations of test compound. Reactions were initiated by addition of enzyme to buffered solutions of substrate and inhibitor. Ki values were calculated according to equation 1.
(§2) [formula] where v0 is the velocity of the reaction, V is the maximal velocity, S is the concentration of substrate with Michaelis constant of KM, and I is the concentration of inhibitor.

For data set [1], the target named is T2, human recombinant cathepsin K (Homo sapiens, UniProt P43235).
T2 construct: made in house; host or cells: not fixed: E coli, Pichia or Baculovirus systems are named as options
T2 sequence (P43235 115-329): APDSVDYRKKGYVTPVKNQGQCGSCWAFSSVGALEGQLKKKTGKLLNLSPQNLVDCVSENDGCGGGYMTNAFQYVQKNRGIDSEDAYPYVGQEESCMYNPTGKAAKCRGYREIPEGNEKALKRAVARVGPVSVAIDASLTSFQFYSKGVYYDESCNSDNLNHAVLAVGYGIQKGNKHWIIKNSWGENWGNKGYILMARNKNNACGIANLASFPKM
Put plainly: Determination of cathepsin K proteolytic catalytic activity (H-D-Ala-Leu-Lys-AMC substrate). The class given is biochemical. The note with it: read-out: Ki Cat. K. As to the method:
Determination of Cathepsin K Proteolytic Catalytic Activity
Convenient assays for cathepsin K are carried out using human recombinant enzyme, such as that described in PDB. • ID BC016058 standard; mRNA; HUM; 1699 BP. • DE Homo sapiens cathepsin K (pycnodysostosis), mRNA (cDNA clone MGC:23107 • RX MEDLINE; RX PUBMED; 12477932. • DR RZPD; IRALp962G1234. • DR SWISS-PROT; P43235;
The recombinant cathepsin K can be expressed in a variety of commercially available expression systems including E coli, Pichia and Baculovirus systems. The purified enzyme is activated by removal of the prosequence by conventional methods.
Standard assay conditions for the determination of kinetic constants used a fluorogenic peptide substrate, typically H-D-Ala-Leu-Lys-AMC, and were determined in either 100 mM Mes/Tris, pH 7.0 containing 1 mM EDTA and 10 mM 2-mercaptoethanol or 100 mMNa phosphate, imM EDTA, 0.1% PEG4000 pH 6.5 or 100 mM Na acetate, pH 5.5 containing 5 mM EDTA and 20 mM cysteine, in each case optionally with […] as stabiliser. The enzyme concentration used was 5 nM. The stock substrate solution was prepared at 10 mM in DMSO. Screens were carried out at a fixed substrate concentration of 60 μM and detailed kinetic studies with doubling dilutions of substrate from 250 μM. The total DMSO concentration in the assay was kept below 3%. All assays were conducted at ambient temperature. Product fluorescence (excitation at 390 nm, emission at 460 nm) was monitored with a Labsystems Fluoroskan Ascent fluorescent plate reader. Product progress curves were generated over 15 minutes following generation of AMC product.
as §1, §2

A further data set has as its target human cathepsin L (Homo sapiens, UniProt P07711). The experiment in a line: Cathepsin L Ki (H-D-Val-Leu-Lys-AMC substrate). The settings on record: pH 5.5, read-out: Ki Cat. L. The class given is biochemical. As to the method:
The procedure above with the following amendments is used for the determination of Ki for cathepsin L.
The enzyme is commercially available human cathepsin L (for example Calbiochem). The substrate is H-D-Val-Leu-Lys-AMC available from Bahcem. The assay buffer is 100 mM sodium acetate 1 mM EDTA, pH5.5) The DMSO stock (10 mM in 100% DMSO) is diluted to 10% in assay buffer. Enzyme is prepared at 5 nM concentration in assay buffer plus 1 mM dithiothreitol just before use. 2 μL of 10 mM inhibitor made up in 100% DMSO is dispensed into row A. 10 μL of 50 μM substrate (=1/200 dilution of 10 mM stock in DMSO, diluted in assay buffer).
as §1, §2

The conditions of data set [2]: reference markers (passive transport, active transport, active efflux); cited from earlier work.

T1 sequence (P25774 115-331): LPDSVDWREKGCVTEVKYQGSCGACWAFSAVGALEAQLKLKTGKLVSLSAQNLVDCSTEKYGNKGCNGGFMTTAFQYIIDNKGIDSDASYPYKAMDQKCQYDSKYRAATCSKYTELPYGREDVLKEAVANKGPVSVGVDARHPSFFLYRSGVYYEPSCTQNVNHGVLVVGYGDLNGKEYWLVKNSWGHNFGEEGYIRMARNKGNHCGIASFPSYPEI
Sequence of human cathepsin L (P07711 114-333): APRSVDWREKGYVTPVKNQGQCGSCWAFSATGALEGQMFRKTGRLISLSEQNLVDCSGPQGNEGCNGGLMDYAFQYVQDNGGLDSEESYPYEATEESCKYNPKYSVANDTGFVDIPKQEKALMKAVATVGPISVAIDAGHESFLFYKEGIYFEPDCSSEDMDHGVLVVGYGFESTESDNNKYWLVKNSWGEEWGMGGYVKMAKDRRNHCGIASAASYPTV

One may read the Ki as a measure of affinity in units of concentration, obtained from inhibition or displacement. Regarding `CCC(=O)N[C@@H](CC1(C)CCCC1)C(=O)N[C@]1(C(=O)C(=O)Nc2ccn(C)n2)C[C@@H](F)C1` [Example A1, N-[3-Fluoro-1-(1-methyl-1H-pyrazol-3-ylaminooxalyl)-cyclobutyl]-3-(1-methyl-cyclopentyl)-2-propionylamino-propionamide], the Ki at human cathepsin S was 0.8 nM; in data set [1], 850 nM; on human cathepsin L, 3900 nM.
Regarding `CC(=O)N[C@@H](CC1(C)CCCC1)C(=O)NC1(C(=O)C(=O)Nc2ccn(C)n2)CCC1` [Example A6], the Ki on human cathepsin S turned out to be 0.81 nM; in data set [1], 580 nM; at human cathepsin L it was 5200 nM.
For `CC(=O)N[C@@H](CC1(C)CCC1)C(=O)NC1(C(=O)C(=O)Nc2ccn(C)n2)CC(F)(F)C1` [Example A13] the same measures were 3.8 nM, 340 nM and 870 nM.
With `CC(=O)N[C@@H](CC(C)(C)C)C(=O)NC1(C(=O)C(=O)Nc2ccn(C)n2)CC(F)(F)C1` [Example A15], the Ki on human cathepsin S turned out to be 20 nM; in data set [1], 1200 nM; at human cathepsin L, 6500 nM.
For `COC1CC(NC(=O)[C@H](CC2(C)CCCC2)NC(C)=O)(C(=O)C(=O)NC2CC2)C1` (stereo partly drawn) [Example A16] the same measures were 10 nM, 12000 nM and 33000 nM.
For `COC1CC(NC(=O)[C@H](CC2(C)CCCC2)NC(=O)CCl)(C(=O)C(=O)NC2CC2)C1` (stereo partly drawn) [Example A19] the same measures were 5.6 nM, 7400 nM and 25000 nM.
On the same counts, the results for `CC(C)C(=O)N[C@@H](CC1(C)CCCC1)C(=O)NC1(C(=O)C(=O)Nc2ccn(C)n2)CC(F)(F)C1` [Example A25] are 1 nM, 1100 nM and 2300 nM.
As for `CC(C)C(=O)NC(CC1(F)CCCC1)C(=O)NC1(C(=O)C(=O)Nc2ccn(C)n2)CC(F)C1` (stereo not drawn) [Example A30], the Ki at human cathepsin S was 1 nM; in data set [1], 720 nM; on human cathepsin L, 3300 nM.
For `COC1CC(NC(=O)[C@H](CC2(F)CCCC2)NC(=O)C(C)(C)C)(C(=O)C(=O)Nc2ccn(C)n2)C1` (stereo partly drawn) [Example A31] the same measures were 1.8 nM, 340 nM and 1200 nM.
On the same counts, the results for `Cn1ccc(NC(=O)C(=O)C2(NC(=O)[C@H](CC3(F)CCCC3)NC(=O)C(F)F)CC(F)(F)C2)n1` [Example A36] are 3 nM, 1100 nM and 380 nM.
On the same counts, the results for `[2H]C([2H])([2H])C(C(=O)N[C@@H](CC1(F)CCCC1)C(=O)NC1(C(=O)C(=O)Nc2ccn(C)n2)CC(F)(F)C1)(C([2H])([2H])[2H])C([2H])([2H])[2H]` [Example A37] are 3 nM, 640 nM and 1800 nM.
Regarding `CCN(CC)C(=O)N[C@@H](CC1(C)CCCC1)C(=O)N[C@]1(C(=O)C(=O)Nc2ccn(C)n2)C[C@@H](F)C1` [Example U1, 2-(3,3-Diethyl-ureido)-N-[3-fluoro-1-(1-methyl-1H-pyrazol-3-ylaminooxalyl)-cyclobutyl]-3-(1-methyl-cyclopentyl)-propionamide], the Ki at human cathepsin S was 1.2 nM; in data set [1] it was 510 nM; on human cathepsin L it was 860 nM.
On the same counts, the results for `CC(C)NC(=O)N[C@@H](CC1(F)CCCC1)C(=O)N[C@]1(C(=O)C(=O)Nc2ccn(C)n2)C[C@@H](F)C1` [Example U2, 3-(1-Fluoro-cyclopentyl)-N-[3-fluoro-1-(1-methyl-1H-pyrazol-3-ylaminooxalyl)-cyclobutyl]-2-(3-isopropyl-ureido)-propionamide] are 1.3 nM, 1300 nM and 2200 nM.
For `CCNC(=O)N[C@@H](CC1(F)CCCC1)C(=O)NC1(C(=O)C(=O)Nc2ccn(C)n2)CCC1` [Example U4] the same measures were 0.63 nM, 620 nM and 2100 nM.
As for `N[C@@H](Cc1ccccc1)C(=O)O` [L-Phenylalanine], the “absorption in man (%)” value in data set [2] is 100%.
As for `OC[C@@H](O)[C@@H](O)[C@H](O)[C@H](O)CO` [Mannitol], in data set [2], the “absorption in man (%)” value is reported as 16%.
Regarding `CN(Cc1cnc2nc(N)nc(N)c2n1)c1ccc(C(=O)N[C@@H](CCC(=O)O)C(=O)O)cc1` [Methotrexate], in data set [2], the “absorption in man (%)” value was 20%.
